Assay results from patent publication US5283255A, “Wavelength-specific cytotoxic agents” (The University of British Columbia, priority 1992, dated 1994).

What was measured:
M-1 rhabdomycoscercoma = experiment: In vivo photosensitization, M-1 rhabdomyosarcoma system in DBA/J2 mice; conditions: for Number of Days Tumor Free (PR) / Cures (tumor regressed and tumor-free for 30 days): Table 6; for Number of Days Tumor Free (PR): 567 Jo/cm^2, IV 24 h before light; for Cures (tumor regressed and tumor-free for 30 days): 567 Jo/cm^2, 8 animals per group; for Days Tumor-free / Number of Cures: Table 7, light dose 378 To/cm^3; for Number of Cures: 9-15 animals
Protocol: Studies of potential photosensitizers were performed using the M-1 rhabdomycoscercoma system in DBA/J2 mice. The compositions to be tested were diluted to a concentration of […] in PBS from a stock solution in DMSO at 8 mg/ml (except Photofrin® II, which was diluted directly from the clinical vial). […]

Absorption spectrum = format: physicochemical; conditions: R^1 and R^2 carbomethoxy; FIG. 3
From the text: All of the compositions of the invention employ as the light absorbing compound, a derivative of the protoporphyrin ring system which has a light absorption maximum in the range of 670-780 nanometers. […] Only BPD-DA has a major absorption peak at about 685 nm.

tumor cells = experiment: Alternate in vivo assay: kill of tumor cells from dosed mice (MTT); conditions: 180 min
[1] = Solubility on dilution for addition to blood; conditions: DMSO stock 8 mg/ml diluted into PBS
target cells = experiment: In vitro evaluation of BPD-DA, -MA, -DB and -MB (as in Example 1); format: cell-based
Protocol: For the "affinity" assay, in the dark, 100 μl of the target cell suspension and 100 μl of the test or control compound were mixed. "Labeling" was allowed to continue for one hour at 4° C., and labeled cells were washed in the dark three times with 3 ml medium each time and resuspended in fresh medium. The resuspended cells were then subjected to light exposure at 300-750 nanometers for 30 minutes.
In a "direct" assay the target cells were irradiated immediately upon addition of the test or control compound.
The effect of irradiation was estimated using methods appropriate to the target cells.
The four compounds shown in FIG. 2, wherein R^1 and R^2 are carbomethoxy, were tested in vitro as described in Example 1.

skin = experiment: Skin sensitivity assay in mice bearing P815 tumors
Protocol: Mice bearing P815 tumors were shaved and injected with equivalent amounts of photosensitizer, and exposed to 72 Jo/cm^2 (80 mw/cm^2 -15 min-full spectrum) at various time intervals. Skin biopsies were taken at 24 and 48 hours after light irradiation and visual evaluations were made blind.

VSV = experiment: microbe, parasite or virus in culture; parameters: species or system Vesicular stomatitis virus; conditions: Vesicular stomatitis virus, light or radiation study, 2 h, read-out: viral kill, 2 μg/ml; 1 ml; 2 h; 57.6 J/cm^2

Row | Structure (SMILES) | Number of Days Tumor Free (PR) (M-1 rhabdomycoscercoma) [days] | Cures (tumor regressed and tumor-free for 30 days) (M-1 rhabdomycoscercoma) | Days Tumor-free (M-1 rhabdomycoscercoma) [days] | Number of Cures (M-1 rhabdomycoscercoma) | major absorption peak (Absorption spectrum) | % Kill (tumor cells; 80 μg/mouse IV, light dose 3.8 Jo) [%] | % Kill (tumor cells; 80 μg/mouse IV, light dose 7.6 Jo) [%] | treatment required to achieve solubility [1] | in vitro photosensitivity (target cells) | skin photosensitizing activity (skin; 72 Jo/cm^2, biopsies 24 and 48 h after light) | time dependence of skin photosensitizing activity (skin; light at various intervals after drug) | log reduction at 2 µg/mL (VSV) | % Kill (tumor cells; 33 μg/mouse IV, light dose 5.7 Jo) [%]
1 | C=Cc1c(C)c2cc3nc(cc4[nH]c(cc5nc(cc1[nH]2)C(C)=C5CCC(=O)O)c(CCC(=O)O)c4C)C1(C)C3=CC=C(C(=O)OC)C1C(=O)OC (stereo not drawn) [BPD-DA] | 10.7 | 4 | 2.5 | 4 | about 685 nm | 11.0 | 26.0 |  |  |  |  |  | 
2 | C=Cc1c(C)c2cc3nc(cc4[nH]c(cc5nc(cc1[nH]2)C1(C)C5=CC=C(C(=O)OC)C1C(=O)OC)c(C)c4CCC(=O)O)C(CCC(=O)OC)=C3C (stereo not drawn) [BPD-MB] | 10.6 | 3 | 8.7 | 6 |  |  |  | required a 20-minute sonication in ultrasonic bath to achieve solubility | somewhat more active | to a lesser extent | only present when light treatment was given 3 hours post drug administration | 4 | 25.2
3 | C=Cc1c(C)c2cc3nc(cc4[nH]c(cc5nc(cc1[nH]2)C1(C)C5=CC=C(C(=O)OC)C1C(=O)OC)c(C)c4CCC(=O)O)C(CCC(=O)O)=C3C (stereo not drawn) [BPD-DB] | 10.6 | 3 | 13.0 | 8 |  |  |  |  |  |  |  |  | 
